From US11173151B2, “Substituted triazole derivatives and uses thereof” (BAYER AKTIENGESELLSCHAFT, priority 2017, dated 2021)

What was measured:
human V2 receptor = target: T1, human V2 receptor (Homo sapiens, UniProt P30518); assay: Cellular in vitro assay for determining vasopressin receptor activity, V2 receptor cell line (CHO, CRE-luciferase); assay type: cell-based; conditions: CHO cell line transfected with human V2 receptor; [Arg8]-vasopressin at EC50 concentration; read-out: IC50 hV2
T1 construct: expressed in transfected cells; host or cells: CHO K1 (ATCC) expressing firefly luciferase under a CRE-responsive promoter
T1 sequence (P30518 whole entry): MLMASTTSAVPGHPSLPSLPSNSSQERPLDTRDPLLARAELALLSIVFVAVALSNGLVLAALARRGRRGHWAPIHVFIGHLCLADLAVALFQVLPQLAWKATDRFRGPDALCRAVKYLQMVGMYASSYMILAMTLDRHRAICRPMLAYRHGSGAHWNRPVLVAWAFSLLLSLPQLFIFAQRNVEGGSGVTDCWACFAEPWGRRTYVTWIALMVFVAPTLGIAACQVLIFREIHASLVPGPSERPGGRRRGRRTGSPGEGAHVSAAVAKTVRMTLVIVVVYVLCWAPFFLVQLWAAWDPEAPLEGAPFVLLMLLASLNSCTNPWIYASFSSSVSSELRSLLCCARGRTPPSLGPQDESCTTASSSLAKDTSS

human V1a receptor = target: T2, human V1a receptor (Homo sapiens, UniProt P37288); assay: Cellular in vitro assay for determining vasopressin receptor activity, V1a receptor cell line (CHO, aequorin luminescence); assay type: cell-based; conditions: for IC50: CHO cell line transfected with human V1a receptor, [Arg]-vasopressin at EC50 concentration, read-out: IC50 hV1a; for ratio IC50 hV2/hV1a: selectivity ratio IC50 hV2 / IC50 hV1a
T2 construct: expressed in transfected cells; host or cells: CHO K1 (ATCC), also stably transfected with a modified aequorin
T2 sequence (P37288 whole entry): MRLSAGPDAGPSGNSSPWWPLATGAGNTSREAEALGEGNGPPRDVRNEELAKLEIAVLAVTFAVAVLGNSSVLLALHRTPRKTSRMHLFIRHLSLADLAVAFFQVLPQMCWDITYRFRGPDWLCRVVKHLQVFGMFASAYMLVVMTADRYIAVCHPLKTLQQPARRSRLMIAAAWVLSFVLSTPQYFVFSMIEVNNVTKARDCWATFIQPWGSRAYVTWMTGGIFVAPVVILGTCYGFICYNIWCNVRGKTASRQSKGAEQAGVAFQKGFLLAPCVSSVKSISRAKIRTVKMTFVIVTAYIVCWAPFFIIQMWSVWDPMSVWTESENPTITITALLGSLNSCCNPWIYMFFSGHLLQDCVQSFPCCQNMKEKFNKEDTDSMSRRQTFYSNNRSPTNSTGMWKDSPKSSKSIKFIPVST
In short: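 Cells were plated the day before in medium containing 5 μg/ml coelenterazine and kept at 37° C. Compounds at various concentrations were then added for 10 minutes. Next, [Arg]-vasopressin at EC50 was applied and light output recorded at once, yielding IC50.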

`O=C(c1cccc(Cl)c1-n1cnc(Cn2nc(-c3ccc(Cl)cc3)n(C[C@H](O)C(F)(F)F)c2=O)n1)N1CC2(COC2)C1` [Example 411, 2-({1-[2-Chloro-6-(2-oxa-6-azaspiro[3.3]hept-6-ylcarbonyl)phenyl]-1H-1,2,4-triazol-3-yl}methyl)-5-(4-chlorophenyl)-4-[(2S)-3,3,3-trifluoro-2-hydroxypropyl]-2,4-dihydro-3H-1,2,4-triazol-3-one] was tested, and the IC50 (human V2 receptor) was 4850 nM, the IC50 (human V1a receptor) was 365 nM and the “ratio IC50 hV2/hV1a” value (human V1a receptor) was 13.3.

With `O=C(NCC(F)(F)F)c1cccc(C(F)(F)F)c1-n1cnc(Cn2nc(-c3ccc(Cl)cc3)n(C[C@H](O)C(F)(F)F)c2=O)n1` [Example 412, 2-[3-({3-(4-Chlorophenyl)-5-oxo-4-[(2S)-3,3,3-trifluoro-2-hydroxypropyl]-4,5-dihydro-1H-1,2,4-triazol-1-yl}methyl)-1H-1,2,4-triazol-1-yl]-N-(2,2,2-trifluoroethyl)-3-(trifluoromethyl)benzamide] the IC50 (human V2 receptor) was 2000 nM, the IC50 (human V1a receptor) was 140 nM and the “ratio IC50 hV2/hV1a” value (human V1a receptor) was 14.3.

For `CC1(NC(=O)c2cccc(C(F)(F)F)c2-n2cnc(Cn3nc(-c4ccc(Cl)cc4)n(C[C@H](O)C(F)(F)F)c3=O)n2)CC1` [Example 414, 2-[3-({3-(4-Chlorophenyl)-5-oxo-4-[(2S)-3,3,3-trifluoro-2-hydroxypropyl]-4,5-dihydro-1H-1,2,4-triazol-1-yl}methyl)-1H-1,2,4-triazol-1-yl]-N-(1-methylcyclopropyl)-3-(trifluoromethyl)benzamide], the IC50 (human V2 receptor) was 3600 nM, the IC50 (human V1a receptor) was 44.5 nM and the “ratio IC50 hV2/hV1a” value (human V1a receptor) was 80.9.

With `O=C(NC1CC1)c1cccc(C(F)(F)F)c1-n1cnc(Cn2nc(-c3ccc(Cl)cc3)n(C[C@H](O)C(F)(F)F)c2=O)n1` [Example 415, 2-[3-({3-(4-Chlorophenyl)-5-oxo-4-[(2S)-3,3,3-trifluoro-2-hydroxypropyl]-4,5-dihydro-1H-1,2,4-triazol-1-yl}methyl)-1H-1,2,4-triazol-1-yl]-N-cyclopropyl-3-(trifluoromethyl)benzamide] the IC50 (human V2 receptor) was 1500 nM, the IC50 (human V1a receptor) was 53.5 nM and the “ratio IC50 hV2/hV1a” value (human V1a receptor) was 28.0.

For `COC[C@H]1CCCN1C(=O)c1cccc(C(F)(F)F)c1-n1cnc(Cn2nc(-c3ccc(Cl)cc3)n(C[C@H](O)C(F)(F)F)c2=O)n1` [Example 416, 5-(4-Chlorophenyl)-2-({1-[2-{[(2R)-2-(methoxymethyl)pyrrolidin-1-yl]carbonyl}-6-(trifluoromethyl)phenyl]-1H-1,2,4-triazol-3-yl}methyl)-4-[(2S)-3,3,3-trifluoro-2-hydroxypropyl]-2,4-dihydro-3H-1,2,4-triazol-3-one], the IC50 (human V2 receptor) was 5850 nM, the IC50 (human V1a receptor) was 51.5 nM and the “ratio IC50 hV2/hV1a” value (human V1a receptor) was 113.6.

In the case of `O=C(NC1CC(F)(F)C1)c1cccc(C(F)(F)F)c1-n1cnc(Cn2nc(-c3ccc(Cl)cc3)n(C[C@H](O)C(F)(F)F)c2=O)n1` [Example 417, 2-[3-({3-(4-Chlorophenyl)-5-oxo-4-[(2S)-3,3,3-trifluoro-2-hydroxypropyl]-4,5-dihydro-1H-1,2,4-triazol-1-yl}methyl)-1H-1,2,4-triazol-1-yl]-N-(3,3-difluorocyclobutyl)-3-(trifluoromethyl)benzamide], the IC50 (human V2 receptor) is reported as 315 nM, the IC50 (human V1a receptor) is reported as 37.5 nM and the “ratio IC50 hV2/hV1a” value (human V1a receptor) is reported as 8.4.

For `O=C(c1cccc(C(F)(F)F)c1-n1cnc(Cn2nc(-c3ccc(Cl)cc3)n(C[C@H](O)C(F)(F)F)c2=O)n1)N1CCS(=O)(=O)CC1` [Example 418, 5-(4-Chlorophenyl)-2-[(1-{2-[(1,1-dioxidothiomorpholin-4-yl)carbonyl]-6-(trifluoromethyl)phenyl}-1H-1,2,4-triazol-3-yl)methyl]-4-[(2S)-3,3,3-trifluoro-2-hydroxypropyl]-2,4-dihydro-3H-1,2,4-triazol-3-one], the IC50 (human V2 receptor) was 32000 nM, the IC50 (human V1a receptor) was 635 nM and the “ratio IC50 hV2/hV1a” value (human V1a receptor) was 50.4.
